Laboratory results taken from publication PMC2063322, “Phase I trial and pharmacokinetics of the tubulin inhibitor 1069C85--a synthetic agent binding at the colchicine site designed to overcome multidrug resistance” (British Journal of Cancer, 1997).
“And” between values parts separate entries of the source, which are not always exact repeats. Equal values may be shown once. Read-outs that look alike come from different tables or passages of the source.

What was measured:
[1] = parameters: method as in data on file Glaxo/Wellcome, 1990; conditions: monkey, p.o.; ref data on file Glaxo/Wellcome, 1990; cited from earlier work
rats = system: rats; parameters: method as in data on file, Cancer Research Campaign, 1993; conditions: 14.3 mg m-2 p.o. (one-tenth mouse LD10), daily x 5 for 4 weeks, rat; ref data on file, Cancer Research Campaign, 1993; cited from earlier work
[2] = cited from earlier work
mice = system: mice; parameters: method as in data on file, Cancer Research Campaign, 1993; conditions: ref data on file, Cancer Research Campaign, 1993, cited from earlier work
mammalian tubulin = system: mammalian tubulin; parameters: method as in Hodgson et al 1992; Hodgson, 1994; conditions: at concentrations cytotoxic to P388 cells, ref Hodgson et al 1992, 1994; cited from earlier work
[3] = dog, cited from earlier work
murine tumours = conditions: cited from earlier work
[4] = Phase I pharmacokinetics: plasma 1069C85 by HPLC after single oral dose; parameters: Cmax of the patient experiencing grade 3 neurotoxicity: unit not given beside the values
Description: (§1) British Joumal of Cancer (1997) 75(4), 608-613 ? […] A phase I study was performed using a single oral dose every 3 weeks, administered as a suspension reconstituted in 0.1% Tween 80 and 0.9% saline. The starting dose was 2.8 mg m-2, and dose doubling was permitted until the area under curve (AUC) was ?40% of that at the mouse LD10; thereafter, a modified Fibonacci scheme was used. […] Keywords: tubulin; multidrug resistance; neurotoxicity The tubulin-binding agent 1069C85 was developed from a struc- ture activity investigation of tubulin inhibitors binding at the colchicine site on tubulin. […] No studies were performed using human tumour xenografts. […] METHODS Formulation and drug administration A formulation was developed at the Cancer Research Campaign Formulation Unit. The drug was dispensed into vials as a dry powder and reconstituted as a fine suspension by administration of 0.9% saline containing 0.1% Tween 80 (polysorbate) with vigorous mixing. Immediately before oral administration, the drug suspension was mixed with orange juice both to disguise any possible unpleasant taste and to help ensure complete ingestion.

[5] = system: murine tumour cell lines with acquired resistance to natural anti-cancer products; conditions: acquired resistance to a variety of natural anti-cancer products, ref Hodgson et al, 1992, 1994; cited from earlier work
[6] = Tumour response assessment in phase I patients; type: in vivo, human; conditions: 39 patients, 2.8-200 mg m-2
Description: as §1

[7] = Stability of 1069C85 in orange juice; conditions: suspension mixed with orange juice
Description: as §1

[8] = Phase I toxicity graded by Common Toxicity Criteria
Description: as §1

[9] = parameters: method as in Raynaud et al, 1994; conditions: mouse, estimated; ref Raynaud et al, 1994; cited from earlier work
Aqueous solubility = type: physicochemical
[10] = micronized, 25 mg m-2, mean (SD), 5 patients
[11] = micronized, 35.8 mg m-2, 1 patient
[12] = micronized, 50 mg m-2, mean, 2 patients
[13] = micronized, 100 mg m-2, mean, 2 patients previously treated at 200 mg m-2 standard formulation
[14] = non-micronized, 2.8 mg m-2, mean (SD), 3 patients
[15] = non-micronized, 5.6 mg m-2, mean, 2 patients
[16] = non-micronized, 11.2 mg m-2, mean (SD), 4 patients
[17] = non-micronized, 22.4 mg m-2, mean (SD), 3 patients
[18] = non-micronized, 35.8 mg m-2, mean (SD), 4 patients
[19] = non-micronized, 50 mg m-2, mean, 2 patients
[20] = non-micronized, 100 mg m-2, mean (SD), 4 patients
[21] = non-micronized, 200 mg m-2, mean (SD), 4 patients
[22] = single patient (no. 39), 50 mg m-2 micronized
[23] = single patient, 100 mg m-2 micronized, ataxia, confusion, hallucinations, coma
[24] = single patient, 100 mg m-2 micronized, vivid dreams, disturbed sleep
[25] = single patient, 200 mg m-2 non-micronized, ataxia, confusion, disorientation
[26] = single patient, 200 mg m-2 non-micronized, visual disturbance, flashing lights
[27] = grade 3 patient, 200 mg m-2 non-micronized
[28] = grade 4 neurotoxicity patient, 100 mg m-2 micronized
[29] = patient no. 39, 50 mg m-2 micronized

COC(=O)Nc1cn2nc(OCc3cc(OC)c(OC)c(OC)c3)ccc2n1 [1069C85]
plasma elimination half-life following oral administration [1]: ~2 h | animals in which repeat dosing proved fatal (rats): seven out of ten | increase of bioavailability with micronized drug ([2]; mice, preclinical, ref F I Raynaud, personal communication): two-threefold | oral bioavailability ([2]; mouse, i.v. vehicle DMSO/saline, ref Raynaud et al, 1994): 20% | plasma elimination half-life following oral administration ([2]; mouse, p.o., ref Raynaud et al, 1994): ~8 h | LD10, single dose intraperitoneally (mice; mice, i.p.): 39.6 mg m-2 | LD10, single oral dose (mice; mice, p.o.): 142.2 mg m-2 | repeat dose that proved to be fatal (mice; mouse, i.p., daily x 5 for 4 weeks): above 3.9 mg m-2 | inhibition of tubulin polymerization (mammalian tubulin): potent inhibition | oral bioavailability ([3]; i.v. formulation dimethyl isosorbide, ref data on file, Glaxo/Wellcome 1990): 7% | plasma elimination half-life following oral administration ([3]; p.o., ref Data on file 1990): approximately 16 h | activity of the 20 mg kg-1 oral dose (murine tumours; 20 mg kg-1, oral, mouse): active dose | anti-tumour activity in vivo (murine tumours; oral route, a variety of murine tumours): confirmed | Cmax of the patient experiencing grade 3 neurotoxicity ([4]; 200 mg m-2, non-micronized): 159 | AUC [4, 10]: 1061.8 (?269.1) gg 1-1 h-1 | Cmax [4, 10]: 58.6 (?19.5) hg 1-' | Tmax [4, 10]: 9.8 (?3.2) h | t1/2 [4, 10]: 38.9 (?36.9) h | AUC [4, 11]: 1262.3 gg 1-1 h-1 | Cmax [4, 11]: 70.7 hg 1-' | Tmax [4, 11]: 6.3 h | t1/2 [4, 11]: 16.3 h | AUC [4, 12]: 3786.9 gg 1-1 h-1 | Cmax [4, 12]: 198.9 hg 1-' | Tmax [4, 12]: 10.6 h | t1/2 [4, 12]: 24 h | AUC [4, 13]: 15011.7 gg 1-1 h-1 | Cmax [4, 13]: 292.3 hg 1-' | Tmax [4, 13]: 6.1 h | t1/2 [4, 13]: 24.7 h | time after dosing at which drug was still detectable in the cerebrospinal fluid ([4]; most severely affected patient, 100 mg m-2 micronized): 8 days and 7 days | terminal half-life (range between patients) ([4]; non-micronized formulation, one-compartment model): 7 to 107 h | Cmax [4, 14]: 7.3 (?3.4) hg 1-' | Tmax [4, 14]: 10 (?7.1) h | t1/2 [4, 14]: 29 (+22) h | AUC ([4]; non-micronized, 2.8 mg m-2 single oral dose, mean (SD), 3 patients, AUC to 24 h): 69.9 (?30.2) gg 1-1 h-1 | AUC [4, 15]: 209.7 gg 1-1 h-1 | Cmax [4, 15]: 13 hg 1-' | Tmax [4, 15]: 9.5 h | t1/2 [4, 15]: 39.5 h | AUC [4, 16]: 371.5 (?178.7) gg 1-1 h-1 | Cmax [4, 16]: 21.7 (?11.3) hg 1-' | Tmax [4, 16]: 5.3 (?1.2) h | t1/2 [4, 16]: 23.2 (?6.9) h | AUC [4, 17]: 476.4 (?206.8) gg 1-1 h-1 | Cmax [4, 17]: 25.9 (?11.4) hg 1-' | Tmax [4, 17]: 7.6 (?1.9) h | t1/2 [4, 17]: 35.7 (?15.1) h | AUC [4, 18]: 507.5 (?153.6) gg 1-1 h-1 | Cmax [4, 18]: 33 (?13.9) hg 1-' | Tmax [4, 18]: 7.8 (?3.4) h | t1/2 [4, 18]: 22.9 (?19.5) h | AUC [4, 19]: 423.3 gg 1-1 h-1 | Cmax [4, 19]: 22 hg 1-' | Tmax [4, 19]: 7.2 h | t1/2 [4, 19]: 73.5 h | AUC [4, 20]: 844.7 (?314.7) gg 1-1 h-1 | Cmax [4, 20]: 48.5 (?25) hg 1-' | Tmax [4, 20]: 4.8 (?1.1) h | t1/2 [4, 20]: 23 (?4.3) h | AUC [4, 21]: 3011 (?1771.4) gg 1-1 h-1 | Cmax [4, 21]: 99.8 (?36.9) hg 1-' | Tmax [4, 21]: 8.8 (?1.9) h | t1/2 [4, 21]: 18.2 (?3) h | terminal elimination half-life (range) ([4]; original formulation, single oral dose every 3 weeks, patients): 18 to 73.5 h | AUC [4, 22]: 16.4 ItM h | Cmax [4, 22]: 327 .g l-i | AUC [4, 23]: 23.4 ItM h | Cmax [4, 23]: 495 .g l-i | AUC [4, 24]: 53.9 ItM h | Cmax [4, 24]: 90 .g l-i | AUC [4, 25]: 15.2 ItM h | Cmax [4, 25]: 159 .g l-i | AUC [4, 26]: 5.1 ItM h | Cmax [4, 26]: 100 .g l-i | activity against resistant murine tumour cell lines [5]: retained activity | objective responses [6]: no objective responses | effect of orange juice on the stability [7]: no effect | incidence of central neurotoxicity (mainly mild sedation) ([8]; 200 mg m-2, non-micronized): four of five | duration of neurotoxic symptoms [8, 27]: 7 days | onset of neurotoxic symptoms after dosing [8, 27]: 48 h | alopecia grade [8, 28]: 2 | neutropenia grade [8, 28]: 3 | onset of neurotoxicity ([8]; grade 4 patient, 100 mg m-2 micronized): approximately 48 h | severe central neurotoxicity, maximum grade ([8]; micronized formulation, doses of 50-100 mg m-2): ≤ 4 | toxicities observed ([8]; micronized, 25 or 35.8 mg m-2): No significant toxicities | nausea and vomiting grade (only toxicities observed) ([8]; non-micronized, 2.8 to 22.4 mg m-2): 1-2 | antiproliferative toxicities ([8]; original formulation, 2.8-200 mg m-2): no antiproliferative toxicities | day of death attributed to 1069C85 [8, 29]: 8 days | thrombocytopenia grade [8, 29]: 3 | vomiting and diarrhoea grade [8, 29]: 2 | neutropenia grade ([8]; patient no. 39, 50 mg m-2 micronized, onset day 6): 4 | Cmax at which severe neurotoxicity was not observed ([8]; patients): < 100 ng ml' | peak plasma concentration above which CNS neurotoxicity was severe ([8]; patients): above 100 tg 1-' | Neurotoxicity (CTC grade) ([8]; single patient (no. 39), 50 mg m-2 micronized, agitation, confusion and visual hallucinations, days 2-6): 3 | Neurotoxicity (CTC grade) ([8]; single patient, 100 mg m-2 micronized, ataxia, confusion, hallucinations, coma, days 2-7): 4 | Neurotoxicity (CTC grade) ([8]; single patient, 100 mg m-2 micronized, vivid dreams, disturbed sleep, days 3-6): 1 | Neurotoxicity (CTC grade) ([8]; single patient, 200 mg m-2 non-micronized, ataxia, confusion, disorientation, days 2-6): 3 | Neurotoxicity (CTC grade) [8, 26]: 1 | Protein binding [9]: 85-99% | aqueous solubility (Aqueous solubility): extremely poor
